pIC50: −log10 of the molar value.
molecular target: Endothelial lipase (EL) (Homo sapiens (Human), UniProt Q9Y5X9); assay: Endothelial lipase (EL) activity assay with fluorescent substrate A10070 in DMPG vesicles; format: biochemical
Protocol: Endothelial lipase activity was measured using a fluorescent substrate, A10070, (Invitrogen, CA) doped into an artificial vesicle containing DMPG (Avanti Polar Lipids) as the excipient. Vesicles were prepared by combining 285 μL of 1 mM DMPG in a 1:1 mixture of MeOH and CHCl3 with 15 μL of 1 mM A10070 in a 1:1 mixture of MeOH and CHCl3. The mixture was dried under nitrogen and resuspended in 150 μL of 50 mM HEPES pH 8.0 buffer containing 100 mM NaCl and 0.2 mM EDTA. The sample was allowed to sit at rt for 15 min and then was sonicated 3×4 mins on ice with a Branson Sonicator using duty cycle 1. This preparation provides vesicles with a mole fraction of 0.05 for the FRET substrate.
The enzymatic assay was measured using white, opaque 96-well half area plates. Each well contained 60 μL of assay buffer (50 mM HEPES pH 8.0, 50 mM NaCl and 1 mM CaCl2) and 2 ul of a DMSO solution containing compound of interest. Conditioned media obtained from HT-1080 cells, which were transformed by RAGE technology (Athersys) to overexpress endogenous EL, was added and the reaction was allowed to incubate for 20 min at 37° C. with gentle agitation. The reaction was started by the addition of 20 μL of a 1:4 dilution of vesicles. The final total reaction volume was 100 μL. The reaction rates were measured on a Gemini plate reader with an excitation wavelength of 488 nm and an emission of 530 nm. Readings were taken every 20 seconds for 10 min with agitation between each reading. The slope of the linear portion of the readout was used to calculate the rate of the reaction.

Chain of Endothelial lipase (EL) (Q9Y5X9 21-500): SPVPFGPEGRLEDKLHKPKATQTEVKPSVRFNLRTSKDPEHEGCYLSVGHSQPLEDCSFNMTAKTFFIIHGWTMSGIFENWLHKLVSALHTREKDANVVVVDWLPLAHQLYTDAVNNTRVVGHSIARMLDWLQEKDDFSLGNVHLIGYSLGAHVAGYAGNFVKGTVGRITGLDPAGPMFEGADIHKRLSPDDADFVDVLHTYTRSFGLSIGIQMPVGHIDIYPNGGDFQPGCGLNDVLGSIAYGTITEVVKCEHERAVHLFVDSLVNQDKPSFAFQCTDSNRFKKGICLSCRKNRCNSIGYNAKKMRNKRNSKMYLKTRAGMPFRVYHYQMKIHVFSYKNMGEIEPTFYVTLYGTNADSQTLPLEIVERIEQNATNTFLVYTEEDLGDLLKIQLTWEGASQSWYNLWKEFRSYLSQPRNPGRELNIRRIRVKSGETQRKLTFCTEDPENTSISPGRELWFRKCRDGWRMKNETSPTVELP

**Q.** `O=C(c1nnc(CCC2CCN(CC3CC3)CC2)o1)c1nc2ccc(-c3ccccc3)cc2s1` [Example 19, (5-(2-(1-(cyclopropylmethyl)piperidin-4-yl)ethyl)-1,3,4-oxadiazol-2-yl)(6-phenylbenzo[d]thiazol-2-yl)methanone] was tested. Which pIC50 did it give?
**A.** The pIC50 was 7.89.

**Q.** How did the pIC50 turn out when `NC(=O)c1ccc(-c2ccc3nc(C(=O)c4nnc(N[C@H]5CCNC5=O)o4)sc3c2)cc1` [Example 51, (S)-4-(2-(5-((2-Oxopyrrolidin-3-yl)amino)-1,3,4-oxadiazole-2-carbonyl)benzo[d]thiazol-6-yl)benzamide] was run?
**A.** Its pIC50 is > 8.00.

**Q.** `CC(C)(C)OC(=O)N1CCC(c2nnc(C(=O)c3nc4ccc(-c5ccc(F)cc5)cc4s3)o2)CC1` [Example 18, tert-butyl 4-(5-(6-(4-fluorophenyl)benzo[d]thiazole-2-carbonyl)-1,3,4-oxadiazol-2-yl)piperidine-1-carboxylate] was tested. Which pIC50 did it give?
**A.** Its pIC50 is > 8.00.

**Q.** `C[C@H](Nc1nnc(C(=O)c2nc3ccc(-c4ccc(F)cc4)cc3s2)o1)c1ccc(Cl)cc1` [Example 65, (S)-(5-((1-(4-chlorophenyl)ethyl)amino)-1,3,4-oxadiazol-2-yl)(6-(4-fluorophenyl)benzo[d]thiazol-2-yl)methanone] was tested. Which pIC50 did it give?
**A.** The pIC50 was 6.38.

**Q.** With `COC(=O)N[C@H]1CC[C@H](c2nnc(C(=O)c3nc4ccc(-c5ccccc5)cc4s3)o2)CC1` [Example 6, methyl ((1R,4R)-4-(5-(6-phenylbenzo[d]thiazole-2-carbonyl)-1,3,4-oxadiazol-2-yl)cyclohexyl)carbamate] as the molecule, how does the pIC50 read?
**A.** The pIC50 was 7.00.

**Q.** With `CC(C)(C)CN1CCC(c2nnc(C(=O)c3nc4ccc(-c5ccccc5)cc4s3)o2)CC1` [Example 45, (5-(1-Neopentylpiperidin-4-yl)-1,3,4-oxadiazol-2-yl)(6-phenylbenzo[d]thiazol-2-yl)methanone] as the molecule, how does the pIC50 read?
**A.** The pIC50 was 7.85.

**Q.** `NC(=O)CNc1nnc(C(=O)c2nc3ccc(-c4ccccc4)cc3s2)o1` [Example 58, 2-((5-(6-phenylbenzo[d]thiazole-2-carbonyl)-1,3,4-oxadiazol-2-yl)amino) acetamide] was tested. Which pIC50 did it give?
**A.** Its pIC50 is 6.98.

**Q.** `CN1CCC(Nc2nnc(C(=O)c3nc4ccc(-c5ccccc5)cc4s3)o2)C1=O` (stereo not drawn) [Example 70, 1-methyl-3-((5-(6-phenylbenzo[d]thiazole-2-carbonyl)-1,3,4-oxadiazol-2-yl)amino)pyrrolidin-2-one] was tested. Which pIC50 did it give?
**A.** Its pIC50 is 6.72.

**Q.** With `O=C(c1nnc(NCCc2ccc(Cl)cc2)o1)c1nc2ccc(-c3ccc(F)cc3)cc2s1` [Example 64, (5-((4-chlorophenethyl)amino)-1,3,4-oxadiazol-2-yl)(6-(4-fluorophenyl)benzo[d]thiazol-2-yl)methanone] as the molecule, how does the pIC50 read?
**A.** Its pIC50 is 8.18.

**Q.** How did the pIC50 turn out when `CC1(Cc2nnc(C(=O)c3nc4ccc(-c5ccccc5)cc4s3)o2)NC(=O)NC1=O` (stereo not drawn) [Example 32, 5-methyl-5-((5-(6-phenylbenzo[d]thiazole-2-carbonyl)-1,3,4-oxadiazol-2-yl)methyl)-imidazol-idine-2,4-dione] was run?
**A.** Its pIC50 is > 8.00.

**Q.** `O=C(c1nnc(CC2CCNC2=O)o1)c1nc2ccc(-c3ccccc3)cc2s1` (stereo not drawn) [Example 1] was tested. Which pIC50 did it give?
**A.** Its pIC50 is > 8.00.

**Q.** `COC(=O)[C@H](COC(C)(C)C)Nc1nnc(C(=O)c2nc3ccc(-c4ccc(F)cc4)cc3s2)o1` [Example 61, (S)-methyl 3-(tert-butoxy)-2-((5-(6-(4-fluorophenyl)benzo[d]thiazole-2-carbonyl)-1,3,4-oxadiazol-2-yl)amino)propanoate] was tested. Which pIC50 did it give?
**A.** The pIC50 was 6.85.

**Q.** How did the pIC50 turn out when `O=C(c1nnc(N[C@H]2CCNC2=O)o1)c1nc2c(F)cc(-c3ccccc3)cc2s1` [Example 55, (S)-3-((5-(4-fluoro-6-phenylbenzo[d]thiazole-2-carbonyl)-1,3,4-oxadiazol-2-yl)amino)pyrrolidin-2-one] was run?
**A.** The pIC50 was 8.00.

**Q.** `O=C(c1nnc(N[C@@H]2CCNC2=O)o1)c1nc2ccc(-c3ccccc3)cc2s1` [Example 56, (R)-3-((5-(6-phenylbenzo[d]thiazole-2-carbonyl)-1,3,4-oxadiazol-2-yl)amino)pyrrolidin-2-one] was tested. Which pIC50 did it give?
**A.** Its pIC50 is 7.34.

**Q.** `O=C(c1nnc(CC2CCNC2=O)o1)c1nc2ccc(-c3ccccc3)cc2s1` (stereo not drawn) [Example 3, 3-((5-(6-phenylbenzo[d]thiazole-2-carbonyl)-1,3,4-oxadiazol-2-yl)methyl)pyrrolidin-2-one] was tested. Which pIC50 did it give?
**A.** The pIC50 was > 8.00.

**Q.** With `O=C(c1nnc(CCc2ncc(-c3ccccc3)o2)o1)c1nc2ccc(-c3ccccc3)cc2s1` [Example 9, (6-phenylbenzo[d]thiazol-2-yl)(5-(2-(5-phenyloxazol-2-yl)ethyl)-1,3,4-oxadiazol-2-yl)methanone] as the molecule, how does the pIC50 read?
**A.** The pIC50 was > 8.00.

**Q.** `O=C(c1nnc(NC2CC2)o1)c1nc2ccc(-c3ccc(F)cc3)cc2s1` [Example 66, (5-(cyclopropylamino)-1,3,4-oxadiazol-2-yl)(6-(4-fluorophenyl)benzo[d]thiazol-2-yl)methanone] was tested. Which pIC50 did it give?
**A.** The pIC50 was 6.54.

**Q.** With `O=C(c1nnc(NC2CCCNC2=O)o1)c1nc2ccc(-c3ccccc3)cc2s1` (single isomer, unassigned) [Example 78, 3-((5-(6-phenylbenzo[d]thiazole-2-carbonyl)-1,3,4-oxadiazol-2-yl)amino)piperidin-2-one] as the molecule, how does the pIC50 read?
**A.** Its pIC50 is 7.57.

**Q.** How did the pIC50 turn out when `Nc1nnc(C(=O)c2nc3ccc(-c4ccccc4)cc3s2)o1` [Example 89, (5-Amino-1,3,4-oxadiazol-2-yl)(6-phenylbenzo[d]thiazol-2-yl)methanone] was run?
**A.** The pIC50 was 7.54.

**Q.** How did the pIC50 turn out when `CN1CCC(Nc2nnc(C(=O)c3nc4ccc(-c5ccccc5)cc4s3)o2)C1=O` (stereo not drawn) [Example 71, 1-methyl-3-((5-(6-phenylbenzo[d]thiazole-2-carbonyl)-1,3,4-oxadiazol-2-yl)amino)pyrrolidin-2-one] was run?
**A.** The pIC50 was 7.66.

**Q.** `O=C(c1nnc(NCCc2ccccc2)o1)c1nc2ccc(-c3ccc(F)cc3)cc2s1` [Example 59, (6-(4-fluorophenyl)benzo[d]thiazol-2-yl)(5-(phenethylamino)-1,3,4-oxadiazol-2-yl)methanone] was tested. Which pIC50 did it give?
**A.** Its pIC50 is 7.31.

**Q.** How did the pIC50 turn out when `CC1(Cc2nnc(C(=O)c3nc4ccc(-c5ccccc5)cc4s3)o2)NC(=O)N(CC(F)(F)F)C1=O` (stereo not drawn) [Example 38, 5-methyl-5-((5-(6-phenylbenzo[d]thiazole-2-carbonyl)-1,3,4-oxadiazol-2-yl)methyl)-3-(2,2,2-trifluoro-ethyl)imidazol-idine-2,4-dione] was run?
**A.** The pIC50 was 7.96.

**Q.** With `CC(C)(C)OC(=O)N[C@H]1CC[C@H](c2nnc(C(=O)c3nc4ccc(-c5ccccc5)cc4s3)o2)CC1` [Example 16, tert-butyl ((1r,4r)-4-(5-(6-phenylbenzo[d]thiazole-2-carbonyl)-1,3,4-oxadiazol-2-yl)cyclohexyl)carbamate] as the molecule, how does the pIC50 read?
**A.** Its pIC50 is 7.51.

**Q.** `O=C(c1nnc(C2CCN(c3ccc(C(F)(F)F)cc3)CC2)o1)c1nc2ccc(-c3ccccc3)cc2s1` [Example 13, (6-phenylbenzo[d]thiazol-2-yl)(5-(1-(4-(trifluoromethyl)phenyl)piperidin-4-yl)-1,3,4-oxadiazol-2-yl)methanone] was tested. Which pIC50 did it give?
**A.** Its pIC50 is > 8.00.

**Q.** `O=C(c1nnc(NCCc2ccc(F)cc2)o1)c1nc2ccc(-c3ccc(F)cc3)cc2s1` [Example 60, (5-((4-fluorophenethyl)amino)-1,3,4-oxadiazol-2-yl)(6-(4-fluorophenyl)benzo[d]thiazol-2-yl)methanone] was tested. Which pIC50 did it give?
**A.** Its pIC50 is 7.25.

**Q.** With `CC(C)NC(=O)CNc1nnc(C(=O)c2nc3ccc(-c4ccccc4)cc3s2)o1` [Example 74, N-isopropyl-2-((5-(6-phenylbenzo [d]thiazole-2-carbonyl)-1,3,4-oxadiazol-2-yl)amino)acetamide] as the molecule, how does the pIC50 read?
**A.** Its pIC50 is 6.82.

**Q.** `O=C(c1nnc(NC2CCCNC2=O)o1)c1nc2ccc(-c3ccccc3)cc2s1` (single isomer, unassigned) [Example 77, 3-((5-(6-phenylbenzo[d]thiazole-2-carbonyl)-1,3,4-oxadiazol-2-yl)amino)piperidin-2-one] was tested. Which pIC50 did it give?
**A.** Its pIC50 is 6.85.

**Q.** How did the pIC50 turn out when `COc1ccc(CCNc2nnc(C(=O)c3nc4ccc(-c5ccc(F)cc5)cc4s3)o2)cc1` [Example 62, (6-(4-fluorophenyl)benzo[d]thiazol-2-yl)(5-((4-methoxyphenethyl)amino)-1,3,4-oxadiazol-2-yl)methanone] was run?
**A.** The pIC50 was 6.62.

**Q.** How did the pIC50 turn out when `O=C(Cc1nnc(C(=O)c2nc3ccc(-c4ccccc4)cc3s2)o1)NC1CC1` [Example 50, N-Cyclopropyl-2-(5-(6-phenylbenzo[d]thiazole-2-carbonyl)-1,3,4-oxadiazol-2-yl)acetamide] was run?
**A.** The pIC50 was > 8.00.

**Q.** How did the pIC50 turn out when `O=C(c1nnc(CC2NC(=O)N(c3ccccc3)C2=O)o1)c1nc2ccc(-c3ccccc3)cc2s1` (stereo not drawn) [Example 41, 3-phenyl-5-((5-(6-phenylbenzo[d]thiazole-2-carbonyl)-1,3,4-oxadiazol-2-yl)methyl)-imidazol-idine-2,4-dione] was run?
**A.** Its pIC50 is 7.80.

**Q.** How did the pIC50 turn out when `O=C(c1nnc(C2CCS(=O)(=O)N2)o1)c1nc2ccc(-c3ccccc3)cc2s1` (stereo not drawn) [Example 11, (5-(1,1-dioxidoisothiazolidin-3-yl)-1,3,4-oxadiazol-2-yl)(6-phenylbenzo[d]thiazol-2-yl)methanone] was run?
**A.** Its pIC50 is > 8.00.

**Q.** With `O=C(c1nnc(N[C@H](CCO)C(=O)O)o1)c1nc2ccc(-c3ccccc3)cc2s1` [Example 68, (R)-4-hydroxy-2-((5-(6-phenylbenzo[d]thiazole-2-carbonyl)-1,3,4-oxadiazol-2-yl)amino)butanoic acid] as the molecule, how does the pIC50 read?
**A.** The pIC50 was 7.57.

**Q.** With `O=C(c1nnc(C2CCN(Cc3ccc(F)cc3)CC2)o1)c1nc2ccc(-c3ccccc3)cc2s1` [Example 17, (5-(1-(4-fluorobenzyl)piperidin-4-yl)-1,3,4-oxadiazol-2-yl)(6-phenylbenzo[d]thiazol-2-yl)methanone] as the molecule, how does the pIC50 read?
**A.** The pIC50 was > 8.00.
